Measurements taken from US11014911B2, “CDK2 inhibitors” (Pfizer Inc., priority 2019, dated 2021).

Assays:
[1] = molecular target: CDK2/Cyclin E1 full length (Homo sapiens (Human), UniProt P24941); experiment: CDK2/Cyclin E1 full length mobility shift assay; assay type: biochemical
GSK3β (H350L) = GSK3β (H350L) (Homo sapiens (Human), UniProt P49841); conditions: read-out: GSK3β Ki
GSK3β (H350L), sequence (P49841 whole entry, stated change not applied): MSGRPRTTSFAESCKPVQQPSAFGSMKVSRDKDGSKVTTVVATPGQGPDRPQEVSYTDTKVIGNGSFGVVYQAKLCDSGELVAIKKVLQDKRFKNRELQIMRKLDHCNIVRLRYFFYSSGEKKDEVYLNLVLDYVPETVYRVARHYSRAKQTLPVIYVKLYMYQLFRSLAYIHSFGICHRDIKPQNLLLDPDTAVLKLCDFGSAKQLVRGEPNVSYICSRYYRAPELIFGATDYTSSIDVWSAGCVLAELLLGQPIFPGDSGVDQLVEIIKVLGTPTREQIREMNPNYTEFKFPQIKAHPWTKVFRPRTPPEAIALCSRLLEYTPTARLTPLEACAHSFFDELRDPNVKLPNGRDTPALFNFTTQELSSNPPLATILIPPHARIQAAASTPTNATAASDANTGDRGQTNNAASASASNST
Experimental: The assay was initiated with the addition of ATP, following 15 minutes pre-incubation of enzyme and inhibitor at room temperature in the reaction mixture. The reaction was stopped after 30 minutes at room temperature by the addition of 50 μL of 80 mM EDTA.

Row | Ki [1] [nM] | Ki (GSK3β (H350L)) [nM] | Compound
1 | 1.26 | 28.8 | O=C(Cc1cc(F)cc(F)c1)Nc1cc([C@H]2CC[C@@H](OC(=O)NCC(F)F)C2)[nH]n1 [Example 253, (1R,3S)-3-(3-{[(3,5-difluorophenyl)acetyl]amino}-1H-pyrazol-5-yl)cyclopentyl (2,2-difluoroethyl)carbamate]
2 | 0.25 | 15.8 | CC1(C)CCN1C(=O)O[C@H]1CC[C@@H](c2cc(NC(=O)Cc3ccccc3S(C)(=O)=O)n[nH]2)C1 [Example 143]
3 | 0.37 | 10.1 | COc1ccc(CC(=O)Nc2cc([C@@H]3CC[C@H](OC(=O)N[C@H]4CC[C@@](C)(O)CC4)C3)[nH]n2)cc1 [Example 564, (1S,3R)-3-(3-{[(4-methoxyphenyl)acetyl]amino}-1H-pyrazol-5-yl)cyclopentyl (cis-4-hydroxy-4-methylcyclohexyl)carbamate]
4 | 0.55 | 28.3 | Cc1ncc(CC(=O)Nc2cc([C@H]3CC[C@@H](OC(=O)N[C@@H]4CCC[C@@H]4C)C3)[nH]n2)s1 [Example 463, (1R,3S)-3-(3-{[(2-methyl-1,3-thiazol-5-yl)acetyl]amino}-1H-pyrazol-5-yl)cyclopentyl [(1R,2S)-2-methylcyclopentyl]carbamate]
5 | 0.11 | 7 | Cc1cc(CC(=O)Nc2cc([C@H]3CC[C@@H](OC(=O)N4CCCCC4(C)C)C3)[nH]n2)on1 [Example 133]
6 | 0.63 | > 191 | CC[C@H](C)NC(=O)O[C@@H]1CC[C@H](c2cc(NC(=O)c3cncn3C)n[nH]2)C1 [Example 321, (1R,3S)-3-(3-{[(1-methyl-1H-imidazol-5-yl)carbonyl]amino}-1H-pyrazol-5-yl)cyclopentyl (2S)-butan-2-ylcarbamate]
7 | 0.16 | 11.1 | Cc1ncc(CC(=O)Nc2cc([C@H]3CC[C@@H](OC(=O)NC(C)(C)C)C3)[nH]n2)s1 [Example 113]
8 | 0.25 | 4.2 | CCCNC(=O)O[C@H]1CC[C@@H](c2cc(NC(=O)Cc3ccc(OC)nc3)n[nH]2)C1 [Example 21]
9 | 0.6 | 9.84 | C[C@]1(O)CC[C@@H](NC(=O)O[C@H]2CC[C@@H](c3cc(NC(=O)Cc4ccc(F)cc4)n[nH]3)C2)CC1 [Example 560, (1S,3R)-3-(3-{[(4-fluorophenyl)acetyl]amino}-1H-pyrazol-5-yl)cyclopentyl (cis-4-hydroxy-4-methylcyclohexyl)carbamate]
10 | 0.19 | 27.1 | Cc1cc(CC(=O)Nc2cc([C@H]3CC[C@@H](OC(=O)NC(C)(C)C)C3)[nH]n2)on1 [Example 107]
11 | 0.21 | 24 | CCC(C)(C)NC(=O)O[C@@H]1CC[C@H](c2cc(NC(=O)Cc3ncc(C)o3)n[nH]2)C1 [Example 62]

Row | Compound | Ki [1] [nM] | Ki (GSK3β (H350L)) [nM]
12 | CC[C@H](C)NC(=O)O[C@@H]1CC[C@H](c2cc(NC(=O)c3cc(COC)nn3C)n[nH]2)C1 [Example 14, (1R,3S)-3-[3-({[3-(methoxymethyl)-1-methyl-1H-pyrazol-5-yl]carbonyl}amino)-1H-pyrazol-5-yl]cyclopentyl (2S)-butan-2-ylcarbamate] | 0.27 | 294
13 | CC[C@H](C)NC(=O)O[C@@H]1CC[C@H](c2cc(NC(=O)Cc3ncc(C)o3)n[nH]2)C1 [Example 333, (1R,3S)-3-(3-{[(5-methyl-1,3-oxazol-2-yl)acetyl]amino}-1H-pyrazol-5-yl)cyclopentyl (2S)-butan-2-ylcarbamate] | 0.41 | 63.2
14 | CC[C@H](C)NC(=O)O[C@@H]1CC[C@H](c2cc(NC(=O)Cc3ccccc3S(=O)(=O)NC)n[nH]2)C1 [Example 374, (1R,3S)-3-[3-({[2-(methylsulfamoyl)phenyl]acetyl}amino)-1H-pyrazol-5-yl]cyclopentyl (2S)-butan-2-ylcarbamate] | 0.32 | 10.8
15 | CCNC(=O)O[C@@H]1CC[C@H](c2cc(NC(=O)Cc3ccno3)n[nH]2)C1 [Example 226, (1R,3S)-3-{3-[(1,2-oxazol-5-ylacetyl)amino]-1H-pyrazol-5-yl}cyclopentyl ethylcarbamate] | 3.72 | 132
